Results on 6 compounds are retold here after patent US20070248590A1, “Modulators of CDC2-like kinases (CLKS) and methods of use thereof” (Sirtris Pharmaceuticals, Inc., priority 2005, published 2007).

One series deals with HDAC. The conditions noted are these: in vitro or in vivo, literature; cited from earlier work.
Series [1] concerns PGC-1alpha and SIRT1 phosphorylation in H2.35 cells. In words: Metabolic 32P PO4 labeling of H2.35 cells, insulin stimulated. The class given is cell-based, mouse. As to conditions: 30 minutes pretreatment, 40 minute insulin stimulation. As for the experimental part:
PGC-1alpha and SIRT1 phosphorylation in vivo is stimulated by insulin and blocked by LY and TG003 as determined by metabolic ^32P PO4 labeling of H2.35 cells infected with adenovirus Flag-Ha-PGC-1alpha or Flag-HA-SIRT1. Cells were infected for 24 hours low glucose DMEM 4% FBS then serum starved for 24 hours in low glucose DMEM 0.5% BSA. Media was then replaced with PO4 free DMEM 0.5% BSA for 30 minutes, and cells were then pretreated with LY or TG003 for 30 minutes before addition of 100 uCi ^32P PO4. Cells were incubated in ^32P PO4 for 20 minutes before a 40 minute insulin stimulation. Cells were then washed with ice-cold PBS, harvested and lysed. Flag-HA-PCC-1alpha and Flag-HA-SIRT1 were immunoprecipitated used anti-flag agarose (Sigma-Aldrich, Cat. #A4596). Immunoprecipitates were washed extensively and analyzed by SDS-PAGE, transferred to PVDF membrane where ^32P signal was analyzed by a Bio-Rad Phosphor-Imager (Bio-Rad Laboratories) (FIG. 20A) and normalized to protein quantitated by western blot using anti-flag antibodies by a Versa-Doc camera system and quantitation software (Bio-Rad Laboratories) (FIG. 20B).

The test system of series [2] is insulin induction of CLK2 alternate splicing in FAO cells. In words: CLK2 splicing analysis (RT-PCR with primers flanking exon 4) in FAO cells. The conditions noted are these: 20 μM inhibitor pretreatment. The class given is cell-based, rat. As for the experimental part: Splicing Analysis. Total RNA was isolated from FAO hepatocytes pre-treated with indicated inhibitor then Insulin for 2 hours. RT-PCR was performed using SuperScript One-Step RT-PCR with taq (Invitrogen) on 1 ug of total RNA using primers flanking exon 4 on Clk2 and Clk1.

In series [3] the test system is PEPCK mRNA expression in FAO hepatocytes. Kind of series: Pepck mRNA by Q-RT-PCR in FAO hepatocytes. The class given is cell-based, rat. The conditions noted are these: 20 uM TG003 for 7 hours. Here is the method:
Cells were grown in F-12+5% FBS then switched to 10% FBS and treated with or without 20 uM TG003 for 7 hours. Total RNA was isolated using Trizol (Invitrogen, Cat. # 15596-026) and reverse transcribed using oligo dT and super script II (Inivtrogen, Cat. # 18064-014). Pepck mRNA was measured by Q-RT-PCR relative to 36B4 control mRNA. Each bar is average+/−stdev N=3.
Cells were serum starved O/N and then treated with or without 200 nM Insulin for 2 hours. Total RNA was isolated using Trizol (Invitrogen, Cat. # 15596-026) and reverse transcribed using oligo dT and super script II (Inivtrogen, Cat. # 18064-014). Pepck mRNA was measured by Q-RT-PCR relative to 36B4 control mRNA. Each bar is average+/−stdev N=3.

Series [4] has as its system diet-induced obese (DIO) C57BL/6 mice. In words: IP dosing of TG003 in DIO mouse model. The format is in vivo. As for the experimental part: Specifically, 5 week old C57BL/6 mice (male 18-22 grams, Charles River Labs, Willmington, Mass.) are placed either on a high fat diet (Research Diets Inc., New Brunswick, N.J., 60% kcal fat Rodent Diet Cat#D12492) or regular chow. Mice are weighed once a week for 5 weeks, test baseline fed glucose, lactate, triglycerides and insulin. At approximately 6 weeks or when mean weight of the DIO groups reach 40 grams, dosing is initiated. TG003 was dosed via IP injection at either 30 or 100 mg/kg (TG003 suspended in 2% HPMC+0.2% DOSS as in previous example). Control DIO and chow fed animals were dosed with IP injection of vehicle alone. Once dosing starts data collections was as follows: Week 1 time point includes a fasted blood glucose measurement, Week 2 blood collection, Week 3 an IPGTT and Week 4 is an endpoint blood and tissue collection.
Mice are dosed at the same time daily. Body weights are taken 2 times a week once dosing starts. Baseline measurements of fed glucose, lactate, triglycerides and insulin are taken at time 0 (commencement of dosing).
Insulin Assay: Mouse insulin levels were measured using the Linco Rat/Mouse Insulin ELISA kit (Cat. #EZRMI-13K). 0 week, 2 week and 4 week blood insulin levels are shown in FIGS. 27A, 27B and 27C respectively for 100 mg/kg TG003 study. 0 week, 2 week and 4 week blood insulin levels are shown in FIGS. 31A, 31B and 31C respectively for 30 mg/kg TG003 study.
IPGTT: Mice are fasted for a minimum of 16 hrs. A glucose reading is taken at time Zero using a glucose meter. Mice are injected with 2 g/kg D-Glucose at one minute time points. A glucose reading is taken at 15, 30, 60, and 120 minutes (Medisense Precision Extra, Blood Glucose Meter, Abbott Cat# 70297-01).

The test system of series [5] is CLK2 repression of PGC-1alpha coactivation of HNF4alpha. Kind of series: gAF1-luciferase (HNF4alpha response element) reporter assay in HEK 293 cells. The format is cell-based, human. As to conditions: 20 μM TG003. Here is the method:
Transient Transfections. HEK 293 were transfected using PolyFect (Qiagen). 25 ng of reporter (gAF1-Luciferase) and 25 ng of pcDNA mouse HNF4-alpha were transfected with pcDNA mouse PGC-1 alpha and pcDNA Flag-CLK2. Equal amounts of total DNA were used for all transfections by adding appropriate amounts of empty vector pcDNA. TG003 (Calbiochem) was added 4 hours after transfection and cells were harvested the next morning. The data presented is the average of 3 replicates from a single experiment, all luciferase experiments were performed at least 3 times with similar results.
On the technique in general: Reporter assays use an easily measured gene product as a stand-in for the process of interest.

Series [6] deals with CLK2 interaction with Sirt1 in HEK 293 cells. In words: Co-immunoprecipitation of endogenous Sirt1 with Flag-CLK2 in HEK 293 cells. The format is cell-based. As to conditions: HEK 293 cells transfected with Flag-CLK2. As for the experimental part: (§1) Immunoprecipitation and Co-Immunoprecipitation. Cells were washed once with PBS containing Phosphatase inhibitors (5 mM Glycerol-2-phosphate, 20 mM NaF, and 0.2 mM Na OrthoVanadate), scraped into tubes, spun down, and lysed by 2× freeze-thaw cycles in 0.4% Triton, 100 mM NaCl, 20 mM KHepes pH 7.9, 1 mM EDTA, Phosphatase inhibitors, 1 mM PMSF, and 1× Protease Inhibitors (Roche). Immunoprecipitations were performed with M2 anti-flag agarose (sigma) or Anti-HA agarose (Roche) for 2 hours rotating at 4 degrees C. followed by 3 washes in lysis buffer. Products were resolved by SDS-PAGE and transferred to PVDF membranes for Western blot analysis.

Series [7] has as its system gluconeogenic genes (PGC-1alpha targets) in FAO hepatocytes. In words: Northern blot of PGC-1alpha target genes in FAO hepatocytes. The format is cell-based, rat. As for the experimental part:
Northern Blot and RNA analysis. FAO hepatocytes were infected with indicated adenovirus overnight in RPMI+0.5% BSA. Cells were grown for 2 more days in RPMI+0.5% BSA. Cells were treated as indicated. Total RNA was isolated using Trizol (Invitrogen). Northern blots using indicated cDNAs were performed on 15 μg of total RNA. Quantitation of RNA was performed by exposing membranes to phosphor-imager screens and analyzed by a Bio-Rad Personal Imager FX and Quantity-One quantitation software (Bio-Rad).

Series [8] has as its system diet-induced obese (DIO) C57BL/6 mice. Kind of series: Oral dosing of TG003 in DIO mouse model. The class given is in vivo. As for the experimental part:
Twenty 9 week old C57BL/6 mice were placed on 60% kcal % fat diet (high fat diet with 60% of calories from fat; Research Diets, Inc., New Brunswick, N.J. Cat. No. D12492) and 15 mice were placed on regular chow. Mice were weighed once a week for 5 weeks, baseline fed glucose, triglycerides and insulin was measured. At approximately 6 weeks on the high fat diet, or when the average body weight of the DIO mice becomes 40 grams, dosing began at various doses and preparations. Mice were dosed daily with either vehicle (2% HPMC+0.2% DOSS) or with TG003 suspended in vehicle and dosed via oral gavage at 100 mg/kg (10 animals each in DIO group; 9 animals in vehicle chow group and 6 animals in TG003 chow group). The study was divided into DIO groups with mean average body weight/cage. Chow fed groups were also sorted by mean average body weight/cage. Body weights were measured once weekly to adjust dosing concentrations for body weight.
Baseline blood on all mice for glucose, triglycerides, insulin, etc. was taken following a one hour food withdrawal. Once dosing started, data collections were as follows: Week 1 time point included fasted blood glucose and body temps for select groups, Week 2 was a fed blood collection, Week 3 fasted blood glucose, Week 4 body temps on select groups and endpoint blood and tissue collection. Body temperature of select groups post dosing on week 1 and week 4 was also taken. Concentration of TG003 compound is adjusted to proper dose according to the mean weight for each group weekly. Final blood collection of all groups was taken 1 hour after dosing in order to determine levels of drug in blood compared to original PK. Mice were not dosed on the day of week 2 blood collections. Mice are typically dosed in the a.m. and only dosed in the p.m. on a day following a 16 hr fast. A test for Free Fatty Acids is done with the plasma final blood collection and with final plasma collection. Assays were done as described above for TG003 IP dosing example.

The subject of series [9] is total phosphorylation of PGC-1alpha and Sirt1 in FAO cells. In words: Metabolic 32P labeling of PGC-1alpha and Sirt1 in FAO hepatocytes. The format is cell-based, rat. The conditions noted are these: 40 μM TG003. Here is the method: (§2) Cell Culture. HEK 293 Cells were cultured in DMEM+10% CCS. FAO Rat hepatocytes were grown in Hamm's F-12 media with 5% FBS. Prior to experiments or adenoviral infections media was switched to RPMI+0.5% BSA. H2.35 Mouse Hepatocytes were grown in DMEM (low glucose)+4% FBS and 2 μM Dexamethasome. Prior to experiments and infection, media was switched to DMEM (low glucose)+0.5% BSA. CLK inhibitor, TG003 (CalBiochem) was dissolved in DMSO.
Metabolic Labeling. HEK 293 were transfected as described above. The next morning cells were switched to DMEM without PO4+10% CCS for 30 minutes, cells were then treated with or without TG003 for 30 minutes then 200 μCi of ^32PO4 was added for 2 hours. Cells were harvested and immunoprecipitation was performed as described above. Immunoprecipitates were resolved by SDS-PAGE and transferred to PVDF membrane, ^32PO4 was detected by exposing membrane to Phospho-imaging screen and followed by Western-Blot using anti-flag antibodies (M2, Sigma).
FAO Hepatocytes were infected with adenovirus as indicated in the figures for 2 days in RPMI+0.5% BSA. Metabolic labeling was performed as described above, except cells were incubated in ^32PO4 for 4 hours.

Series [10] deals with CLK2 phosphorylation of Sirt1 in HEK 293 cells. In words: Metabolic 32P labeling of Flag-HA-Sirt1 in transfected HEK 293 cells. As to conditions: 40 uM TG003. The class given is cell-based, human. Here is the method: as §2, §1
Metabolic Labeling. HEK 293 were transfected as described above. […] Immunoprecipitates were resolved by SDS-PAGE and transferred to PVDF membrane, ^32PO4 was detected by exposing membrane to Phospho-imaging screen and followed by Western-Blot using anti-flag antibodies (M2, Sigma).

[11] abbreviates: systemic intraperitoneal delivery, DIO mice, 30 or 100 mg/kg.
[12] abbreviates: FAO hepatocytes overexpressing PGC-1alpha, increasing amounts of TG003.

Regarding `O=C(/C=C/c1cccc(C(=O)NO)c1)NO` [CBHA, m-carboxy-cinnamic acid bishydroxamic acid], in the series on HDAC, the “inhibition of HDAC” value was “micromolar concentration or lower”.
As for `C/C=C1\NC(=O)[C@H]2CSSCC/C=C/[C@H](CC(=O)N[C@H](C(C)C)C(=O)N2)OC(=O)[C@H](C(C)C)NC1=O` [Depsipeptide], the “inhibition of HDAC” value with HDAC is “micromolar concentrations”.
On to `O=c1cc(N2CCOCC2)oc2c(-c3ccccc3)cccc12` [LY], for which, in series [1], the “insulin-stimulated PGC-1alpha phosphorylation” value was “blocked” and the “insulin-stimulated SIRT1 phosphorylation” value is “blocked”. In [2], the “insulin induction of CLK2 alternate splicing (truncated transcript)” value is listed as “blocks”.
As to `CCN1/C(=C/C(C)=O)Sc2ccc(OC)cc21` [TG003, (Z)-1-(3-ethyl-5-methoxy-2,3-dihydrobenzothiazol-2-ylidene) propan-2-one], in series [1], the “insulin-stimulated PGC-1alpha phosphorylation” value is on record as “blocked” and the “insulin-stimulated SIRT1 phosphorylation” value was “blocked”. The “Pepck mRNA relative to 36B4” value in series [3] is “induction”. Also, the “drug remaining at injection site upon sacrifice” value in series [4] (IP dosing, multiple injections) is given as “observed in the intraperitoneal cavity”. Moreover, in [4] (setting [11]), the blood glucose levels result is “decrease”, the blood insulin levels result was “decrease” and the body weight result is “decrease”. Moreover, the “CLK2 repression of PGC-1 alpha (luciferase activity)” value in series [5] is on record as “partially rescues”. Moreover, the “mobility of Sirt1 co-immunoprecipitated with CLK2” value in series [6] is listed as “shifted to a band with faster mobility”. In addition, in series [7] (setting [12]), the “induction of G6Pase” value is listed as “seen in a dose dependent manner” and the “induction of Pepck” value was “seen in a dose dependent manner”. For the same compound, the “CLK2 repression of PGC-1alpha induction of gluconeogenic genes (G6Pase, Pepck)” value in series [7] (FAO hepatocytes, 40 μM TG003 for 1 hour then Fsk+Dex) was “rescued”. Also, the “in vivo effect on body weight seen with IP dosing” value in series [8] (100 mg/kg oral dosing) is given as “did not repeat”. In series [8] (100 mg/kg oral vs vehicle, 2 week, DIO or chow groups), the fed insulin result is on record as “not much of an effect”. Moreover, in series [8] (100 mg/kg oral vs vehicle, 4 week, DIO or chow groups), the fed blood glucose result was “not much of an effect”. Further, in [8] (DIO animals, 100 mg/kg oral, 1 week of dosing), the body temperature result was “significant drop”. Also, the “drop in body temperature” value in [8] (DIO animals, 100 mg/kg oral, 4 weeks of dosing) is given as over 2 degree. In series [8] (chow fed group, 100 mg/kg oral), the body temperature result was “no significant effect”. Besides, in [9], the “total phosphorylation of PGC-1alpha (32phosphate relative to protein levels)” value was “decreased” and the “total phosphorylation of Sirt1 (32phosphate relative to protein levels)” value was “decreased”. Further, in [10], the “incorporation of 32phosphate into Flag-HA-Sirt1 WT” value is “noticeably decreased” and the “shift in Sirt1 mobility caused by overexpression of CLK2” value was “abrogated”. Further, in [2], the “insulin induction of CLK2 alternate splicing (truncated transcript)” value is on record as “blocks”.
Regarding depudecin, the “inhibition of HDAC” value in the series on HDAC is reported as “micromolar concentrations”.
trichostatin A [TSA]: in the series with HDAC, the “inhibition of HDAC” value was “potent inhibitor”.
